PubChem BioAssay (NCI)
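1) Cells in 96-well plates. 2) Compound, 48 h, 5 concentrations. 3) Linear interpolation between surrounding doses. 4) Unreached endpoint = highest concentration. GI50 is the concentration that inhibits growth by half. TGI: concentration producing complete growth inhibition.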

Key:
Experiment in all cases: growth of human tumour cells (NCI), 48 h
RPMI-8226 leukemia = tested on: RPMI-8226 leukemia
SK-OV-3 ovarian = tested on: SK-OV-3 ovarian
TK-10 renal = tested on: TK-10 renal
HOP-62 NSCLC = tested on: HOP-62 NSCLC
PC-3 prostate = tested on: PC-3 prostate
RXF 393 renal = tested on: RXF 393 renal
HT29 colon = tested on: HT29 colon
M14 melanoma = tested on: M14 melanoma
OVCAR-5 ovarian = tested on: OVCAR-5 ovarian
HCC-2998 colon = tested on: HCC-2998 colon
ACHN renal = tested on: ACHN renal

SMILES: CC1CCC2(O)C3(C)CC4(O)OC2(C1O)C1(O)C3(O)C(OC(=O)c2ccc[nH]2)C(O)(C(C)C)C41C (stereo unspecified)
- TGI (RPMI-8226 leukemia): > 100 µM
- TGI (SK-OV-3 ovarian): > 100 µM
- TGI (TK-10 renal): > 100 µM
- TGI (HOP-62 NSCLC): > 100 µM
- TGI (PC-3 prostate): > 100 µM
- TGI (RXF 393 renal): > 100 µM
- TGI (HT29 colon): > 100 µM
- TGI (M14 melanoma): > 100 µM
- TGI (OVCAR-5 ovarian): > 100 µM
- TGI (HCC-2998 colon): > 100 µM
- TGI (ACHN renal): > 100 µM

SMILES: N#CN=[N+]([O-])c1ccc(C(=O)O)cc1
- TGI (RPMI-8226 leukemia): 35.3 µM
- TGI (SK-OV-3 ovarian): 33 µM
- TGI (TK-10 renal): 31.4 µM
- TGI (HOP-62 NSCLC): 30.7 µM
- TGI (PC-3 prostate): 31.2 µM
- TGI (RXF 393 renal): 30.1 µM
- TGI (HT29 colon): 46.3 µM
- TGI (M14 melanoma): 34 µM
- TGI (OVCAR-5 ovarian): 34.7 µM
- TGI (HCC-2998 colon): > 100 µM
- TGI (ACHN renal): 32.7 µM

SMILES: O=C1CSC(=S)N1
- TGI (RPMI-8226 leukemia): > 100 µM
- TGI (TK-10 renal): > 100 µM
- TGI (HOP-62 NSCLC): > 100 µM
- TGI (PC-3 prostate): > 100 µM
- TGI (M14 melanoma): > 100 µM
- TGI (OVCAR-5 ovarian): > 100 µM
- TGI (HCC-2998 colon): > 100 µM
- TGI (ACHN renal): > 100 µM

SMILES: COc1ccc2nc3cc(Cl)ccc3c(NCCNC(=O)Cn3c(=O)n(C)c(=O)c4c3nc3c(c(=O)n(C)c(=O)n3C)[n+]4[O-])c2c1
- TGI (RPMI-8226 leukemia): > 100 µM
- TGI (SK-OV-3 ovarian): > 100 µM
- TGI (TK-10 renal): > 56.1 µM
- TGI (HOP-62 NSCLC): 50.8 µM
- TGI (PC-3 prostate): > 100 µM
- TGI (RXF 393 renal): > 100 µM
- TGI (HT29 colon): > 65.1 µM
- TGI (M14 melanoma): > 100 µM
- TGI (OVCAR-5 ovarian): > 100 µM
- TGI (HCC-2998 colon): > 100 µM
- TGI (ACHN renal): > 100 µM

SMILES: CSc1nc(NC2OCC(O)C(O)C2O)c(N)c(=O)[nH]1 (stereo unspecified)
- TGI (RPMI-8226 leukemia): > 100 µM
- TGI (SK-OV-3 ovarian): > 100 µM
- TGI (HOP-62 NSCLC): > 100 µM
- TGI (RXF 393 renal): > 100 µM
- TGI (HT29 colon): > 100 µM
- TGI (OVCAR-5 ovarian): > 100 µM
- TGI (HCC-2998 colon): > 100 µM

SMILES: S=c1nc(N2CCCCC2)c2cn[nH]c2[nH]1
- TGI (RPMI-8226 leukemia): > 100 µM
- TGI (TK-10 renal): > 100 µM
- TGI (HOP-62 NSCLC): > 100 µM
- TGI (PC-3 prostate): > 100 µM
- TGI (RXF 393 renal): > 100 µM
- TGI (HT29 colon): > 100 µM
- TGI (M14 melanoma): > 100 µM
- TGI (OVCAR-5 ovarian): > 100 µM
- TGI (HCC-2998 colon): > 100 µM
- TGI (ACHN renal): > 100 µM

SMILES: NCCCOc1ccc([N+](=O)[O-])cc1Cl
- TGI (RPMI-8226 leukemia): > 100 µM
- TGI (TK-10 renal): > 100 µM
- TGI (HOP-62 NSCLC): > 100 µM
- TGI (HT29 colon): > 100 µM
- TGI (M14 melanoma): > 100 µM
- TGI (OVCAR-5 ovarian): > 100 µM
- TGI (HCC-2998 colon): > 100 µM
- TGI (ACHN renal): > 100 µM

SMILES: O=C1NC2=C(CCCC/C2=N\O)C12CCCCC2
- TGI (SK-OV-3 ovarian): > 100 µM
- TGI (TK-10 renal): > 100 µM
- TGI (HOP-62 NSCLC): > 100 µM
- TGI (RXF 393 renal): > 100 µM
- TGI (HT29 colon): > 100 µM
- TGI (M14 melanoma): > 100 µM
- TGI (OVCAR-5 ovarian): > 100 µM
- TGI (HCC-2998 colon): > 100 µM
- TGI (ACHN renal): > 100 µM

SMILES: Brc1ccc(C2CC(c3cccc4ccccc34)=Nc3ccccc3S2)cc1 (stereo unspecified)
- TGI (RPMI-8226 leukemia): 51.6 µM
- TGI (SK-OV-3 ovarian): > 100 µM
- TGI (TK-10 renal): > 100 µM
- TGI (HOP-62 NSCLC): > 100 µM
- TGI (RXF 393 renal): > 100 µM
- TGI (HT29 colon): > 100 µM
- TGI (M14 melanoma): > 100 µM
- TGI (OVCAR-5 ovarian): > 100 µM
- TGI (HCC-2998 colon): > 100 µM
- TGI (ACHN renal): > 100 µM

SMILES: Fc1ccc(C2CC(c3cccc(Nc4ccncc4)c3)=NN2c2ccc(Cl)cc2)cc1 (stereo unspecified)
- GI50 (SK-OV-3 ovarian): 1.98 µM
- TGI (SK-OV-3 ovarian): 4.53 µM
- GI50 (TK-10 renal): 1.74 µM
- TGI (TK-10 renal): 3.37 µM
- GI50 (PC-3 prostate): 1.63 µM
- TGI (PC-3 prostate): 3.19 µM
- GI50 (RXF 393 renal): 1.63 µM
- TGI (RXF 393 renal): 3 µM
- GI50 (HT29 colon): 1.99 µM
- TGI (HT29 colon): 4.44 µM
- GI50 (M14 melanoma): 1.77 µM
- TGI (M14 melanoma): 3.38 µM
- GI50 (OVCAR-5 ovarian): 1.81 µM
- TGI (OVCAR-5 ovarian): 4.05 µM
- GI50 (HCC-2998 colon): 1.55 µM
- TGI (HCC-2998 colon): 2.96 µM
- GI50 (ACHN renal): 1.61 µM
- TGI (ACHN renal): 2.96 µM

SMILES: Cc1cc2c(cc1C)OC(=O)CC2
- TGI (RPMI-8226 leukemia): > 100 µM
- TGI (TK-10 renal): > 100 µM
- TGI (HOP-62 NSCLC): > 100 µM
- TGI (PC-3 prostate): > 100 µM
- TGI (RXF 393 renal): > 100 µM
- TGI (HT29 colon): > 100 µM
- TGI (M14 melanoma): > 100 µM
- TGI (OVCAR-5 ovarian): > 100 µM
- TGI (HCC-2998 colon): > 100 µM
- TGI (ACHN renal): > 100 µM

SMILES: OCCOCCN1CCN(CCCN2c3ccccc3Sc3ccc(C(F)(F)F)cc32)CC1
- TGI (RPMI-8226 leukemia): 17.8 µM
- TGI (SK-OV-3 ovarian): 33.7 µM
- TGI (TK-10 renal): 24.1 µM
- TGI (HOP-62 NSCLC): 33.2 µM
- TGI (PC-3 prostate): 29.6 µM
- TGI (RXF 393 renal): 9.85 µM
- TGI (HT29 colon): 7.65 µM
- TGI (M14 melanoma): 5.39 µM
- TGI (OVCAR-5 ovarian): 27.3 µM
- TGI (HCC-2998 colon): 13 µM
- TGI (ACHN renal): 31.8 µM

SMILES: CC(=O)OCC1=C(C(=O)O)N2C(=O)C(NC(=O)CSc3ccncc3)C2SC1 (stereo unspecified)
- TGI (RPMI-8226 leukemia): > 100 µM
- TGI (SK-OV-3 ovarian): > 100 µM
- TGI (HOP-62 NSCLC): > 100 µM
- TGI (PC-3 prostate): > 100 µM
- TGI (RXF 393 renal): > 100 µM
- TGI (HT29 colon): > 100 µM
- TGI (M14 melanoma): > 100 µM
- TGI (OVCAR-5 ovarian): > 100 µM
- TGI (HCC-2998 colon): > 100 µM
- TGI (ACHN renal): > 100 µM

SMILES: CCOC(=O)NC(Nc1ncccn1)(C(=O)OCC)C(F)(F)F (stereo unspecified)
- TGI (RPMI-8226 leukemia): > 100 µM
- TGI (TK-10 renal): > 100 µM
- TGI (PC-3 prostate): > 100 µM
- TGI (RXF 393 renal): > 100 µM
- TGI (HT29 colon): > 100 µM
- TGI (M14 melanoma): > 100 µM
- TGI (OVCAR-5 ovarian): > 100 µM
- TGI (HCC-2998 colon): > 100 µM
- TGI (ACHN renal): > 100 µM

SMILES: C[C@]12CC[C@@H]3c4ccc(O)cc4CC[C@H]3[C@@H]1CC[C@@H]2OP(=O)(O)O
- TGI (RPMI-8226 leukemia): > 100 µM
- TGI (SK-OV-3 ovarian): > 100 µM
- TGI (TK-10 renal): > 100 µM
- TGI (HOP-62 NSCLC): > 100 µM
- TGI (PC-3 prostate): > 100 µM
- TGI (RXF 393 renal): > 100 µM
- TGI (HT29 colon): > 100 µM
- TGI (M14 melanoma): > 100 µM
- TGI (OVCAR-5 ovarian): > 100 µM
- TGI (HCC-2998 colon): > 100 µM
- TGI (ACHN renal): > 100 µM

SMILES: O=C1Nc2ccccc2C1=Nc1cccc2ncccc12
- TGI (RPMI-8226 leukemia): > 100 µM
- TGI (SK-OV-3 ovarian): 99.7 µM
- TGI (TK-10 renal): > 100 µM
- TGI (HOP-62 NSCLC): > 100 µM
- TGI (PC-3 prostate): > 100 µM
- TGI (RXF 393 renal): > 100 µM
- TGI (HT29 colon): > 100 µM
- TGI (M14 melanoma): > 100 µM
- TGI (OVCAR-5 ovarian): > 100 µM
- TGI (ACHN renal): > 100 µM

SMILES: CC(=O)c1ccc2c(c1)c1c(C)c3c[n+](C)ccc3c(C)c1n2C
- TGI (RPMI-8226 leukemia): 30.5 µM
- TGI (SK-OV-3 ovarian): > 87 µM
- TGI (HOP-62 NSCLC): 38.2 µM
- TGI (RXF 393 renal): 42.8 µM
- TGI (HT29 colon): > 100 µM
- TGI (OVCAR-5 ovarian): > 100 µM
- TGI (HCC-2998 colon): > 100 µM
